Structures can show the parent of a compound that is named as a salt. Where two headings read alike, the source gives them in different places.
Key:
SUV39H2 = SUV39H2 (Homo sapiens (Human), UniProt Q9H5I1); conditions: read-out: IC50 (μM) Suv 39H2 assay; enzyme assay
A549 = experiment: Cell-based assay, anti-proliferative activity (Cell Counting Kit-8, 72 hours); conditions: Homo sapiens, read-out: IC50 (μM) A549
Procedure: 100 micro-L of cell suspension was seeded onto 96-well microtiter plate (ViewPlate-96FTC, PerkinElmer). […] Cellular growth was determined using Cell Counting Kit-8 (DOJINDO) at 72 hours after the exposure of the candidate inhibitors. […] Accurate IC50 values were calculated as described previously.

HFL1 = experiment: as above; conditions: Homo sapiens, read-out: IC50 (μM) HFL1
Procedure: (§1) Active candidate inhibitors against SUV39H2 were evaluated for their target-specific cytotoxicity using A549, HCT-116, HFL1, CCD-18Co and PC14. 100 micro-L of cell suspension was seeded onto 96-well microtiter plate (ViewPlate-96FTC, PerkinElmer). The initial cell concentration of A549, HCT-116, HFL1, CCD-18Co and PC14 were 3,000 cells/well, 2,000 cells/well and 2,500 cells/well, respectively. Cellular growth was determined using Cell Counting Kit-8 (DOJINDO) at 72 hours after the exposure of the candidate inhibitors. IC50 was used as an indicator of the anti-proliferative activity of the inhibitors, and calculated by serial dilution method (0, 1.5625, 3.125, 6.25, 12.5, 25, 50, and 100 micro-M). Accurate IC50 values were calculated as described previously.

CCD-18Co = experiment: as above; conditions: Homo sapiens, read-out: IC50 (μM) CCD-18Co
Procedure: as §1

HCT-116 = experiment: as above; conditions: Homo sapiens, read-out: IC50 (μM) HCT-116
Procedure: as §1

[1] = A549 cells, Cell Counting Kit-8, 72 hours
[2] = HFL1 cells, Cell Counting Kit-8, 72 hours
[3] = CCD-18Co cells, Cell Counting Kit-8, 72 hours
[4] = HCT-116 cells, Cell Counting Kit-8, 72 hours

Sequence of SUV39H2 (Q9H5I1 whole entry): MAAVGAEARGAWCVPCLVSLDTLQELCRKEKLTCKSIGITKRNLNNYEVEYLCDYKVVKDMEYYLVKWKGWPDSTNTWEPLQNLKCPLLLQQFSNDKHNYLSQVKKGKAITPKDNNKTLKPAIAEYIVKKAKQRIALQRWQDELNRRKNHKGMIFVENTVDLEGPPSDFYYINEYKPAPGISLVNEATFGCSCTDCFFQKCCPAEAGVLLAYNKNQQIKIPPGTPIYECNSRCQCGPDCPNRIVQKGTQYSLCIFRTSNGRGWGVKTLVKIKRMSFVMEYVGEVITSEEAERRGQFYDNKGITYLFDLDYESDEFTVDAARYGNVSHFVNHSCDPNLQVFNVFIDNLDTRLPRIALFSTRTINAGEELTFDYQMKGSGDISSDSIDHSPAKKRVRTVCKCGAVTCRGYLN

Structure (SMILES)	IC50 (SUV39H2) [µM]	IC50 (A549; [1]) [µM]	IC50 (HFL1; [2]) [µM]	IC50 (CCD-18Co; [3]) [µM]	IC50 (HCT-116; [4]) [µM]	IC50 (A549; A549, 72 h) [µM]	IC50 (HFL1; HFL1, 72 h) [µM]	IC50 (CCD-18Co; CCD-18Co, 72 h) [µM]	IC50 (HCT-116; HCT-116, 72 h) [µM]
COc1cc(OC)c(-c2cn3ccc(NCCN4CCOCC4)cc3n2)cc1Cl [Example 70, 2-(5-chloro-2,4-dimethoxyphenyl)-N-(2-morpholinoethyl)imidazo[1,2-a]pyridine-7-amine]	0.0165	14	8.4	14	10	–	–	–	–
COc1cc(OC)c(-c2cn3ccc(N4CCC(N)C4)cc3n2)cc1C#N (stereo not drawn) [Example 73, 5-[7-(3-aminopyrrolidin-1-yl)imidazo[1,2-a]pyridin-2-yl]-2,4-dimethoxybenzonitrile]	0.0112	2.3	1.5	5.6	1.5	–	–	–	–
COc1cc(OC)c(-c2cn3ccc(N4CCC(NC(=O)OC(C)(C)C)C4)nc3n2)cc1C#N (stereo not drawn) [Example 74, tert-butyl (1-(2-(5-cyano-2,4-dimethoxyphenyl)imidazo[1,2-a]pyrimidin-7-yl)pyrrolidin-3-yl) carbamate]	0.0303	8.5	3.9	6.4	8.1	–	–	–	–
COc1cc(OC)c(-c2cn3ccc(NCCNC(C)=O)cc3n2)cc1Cl [Example 77, N-(2-((2-(5-chloro-2,4-dimethoxyphenyl)imidazo[1,2-a]pyridin-7-yl)amino)ethyl)acetamide]	0.0101	30	15	31	21	–	–	–	–
COc1cc(OC)c(-c2cn3ccc(N4CCOCC4)nc3n2)cc1Cl [Example 79, 4-(2-(5-chloro-2,4-dimethoxyphenyl)imidazo[1,2-a]pyrimidin-7-yl)-morpholine hydrobromide]	0.0344	21	15	22	21	–	–	–	–
COc1cc(OC)c(-c2cn3cc(NCCN)ccc3n2)cc1Cl [Example 81, N^1-(2-(5-chloro-2,4-dimethoxyphenyl)imidazo[1,2-a]pyridin-6-yl)ethane-1,2-diamine]	0.0179	13	5.6	11	11	–	–	–	–
COc1cc(OC)c(-c2cn3ccc(NCCN(C)C)cc3n2)cc1Cl [Example 83, N^1-(2-(5-chloro-2,4-dimethoxyphenyl)imidazo[1,2-a]pyridin-7-yl)-N^2,N^2-dimethylethane-1,2-diamine]	0.0373	–	–	–	–	5.5	2.2	7.1	6.7
COc1cc(OCC2CC2)c(-c2cn3ccc(N4CCOCC4)cc3n2)cc1Cl [Example 84, 4-(2-(5-chloro-2-(cyclopropylmethoxy)-4-methoxyphenyl)imidazo-[1,2-a]pyridin-7-yl)morpholine]	0.0138	4.6	3.2	4.3	3.8	–	–	–	–
COc1cc(OCCCN(C)C)c(-c2cn3ccc(N4CCOCC4)cc3n2)cc1Cl [Example 85, 3-(4-chloro-5-methoxy-2-(7-morpholinoimidazo[1,2-a]pyridin-2-yl)-phenoxy)-N,N-dimethylpropan-1-amine]	0.0338	8.7	3.5	7.9	9	–	–	–	–
COc1cc(OC)c(-c2cn3ccc(N4CCOCC4)cc3n2)cc1C [Example 86, 4-(2-(2,4-dimethoxy-5-methylphenyl)imidazo[1,2-a]pyridin-7-yl)morpholine]	0.0207	14	8	13	14	–	–	–	–
COc1cc(OC)c(-c2cn3ccc(N4CCOCC4)cc3n2)cc1F [Example 87, 4-(2-(5-fluoro-2,4-dimethoxyphenyl)imidazo[1,2-a]pyridin-7-yl)morpholine hydrobromide]	0.032	3.3	4	5.6	2.3	–	–	–	–
COc1cc(OC2CCCC2)c(-c2cn3ccc(N4CCOCC4)cc3n2)cc1Cl [Example 90, 4-(2-(5-chloro-2-(cyclopentyloxy)-4-methoxyphenyl)imidazo[1,2-a]-pyridin-7-yl)morpholine]	0.0584	7.1	3.9	6	4.7	–	–	–	–
COC(=O)NCCNc1cn2cc(-c3cc(Cl)c(OC)cc3OC)nc2cc1OC [Example 91, methyl (2-((2-(5-chloro-2,4-dimethoxyphenyl)-7-methoxyimidazo[1,2-a]-pyridin-6-yl)amino)ethyl)carbamate]	0.0263	3.1	2.9	4.7	2.2	–	–	–	–
COc1cc(OC)c(-c2cn3ccc(N4CCC(N(C)C)CC4)cc3n2)cc1Cl [Example 92, 1-(2-(5-chloro-2,4-dimethoxyphenyl)imidazo[1,2-a]pyridin-7-yl)-N,N-dimethylpiperidin-4-amine]	0.0135	6	5.5	8.8	7	–	–	–	–
COc1cc(OC)c(-c2cn3ccc(N4CCOCC4)cc3n2)cc1C#N [Example 93, 2,4-Dimethoxy-5-(7-morpholinoimidazo[1,2-a]pyridin-2-yl)benzonitrile]	0.0119	–	–	–	–	6.4	9.6	6.3	6.4
COc1cc(OCCN(C)C)c(-c2cn3ccc(N4CCOCC4)cc3n2)cc1Cl [Example 98, 2-(4-chloro-5-methoxy-2-(7-morpholinoimidazo[1,2-a]pyridin-2-yl)-phenoxy)-N,N-dimethylethanamine]	0.0372	22	15	9.9	13	–	–	–	–
COc1cc(OC)c(-c2cn3cc(C4=CCNCC4)c(N4CCOCC4)cc3n2)cc1Cl [Example 101, 4-(2-(5-chloro-2,4-dimethoxyphenyl)-6-(1,2,3,6-tetrahydropyridin-4-yl)imidazo[1,2-a]pyridin-7-yl)morpholine]	0.0105	8.3	7.5	6.6	8.6	–	–	–	–
COC(=O)N1CC=C(c2ccn3cc(-c4cc(Cl)c(OC)cc4OC)nc3c2)CC1 [Example 102, methyl 4-[2-(5-chloro-2,4-dimethoxyphenyl)imidazo[1,2-a]pyridin-7-yl]-5,6-dihydropyridine-1(2H)-carboxylate]	0.0756	1.6	2.3	2.8	1.9	–	–	–	–
COCCN1CCN(c2ccn3cc(-c4cc(Cl)c(OC)cc4OC)nc3c2)CC1 [Example 105, 2-(5-chloro-2,4-dimethoxyphenyl)-7-(4-(2-methoxyethyl)piperazin-1-yl)imidazo[1,2-a]pyridine]	0.0111	7.2	8.3	8.1	7	–	–	–	–
COc1cc(OC)c(-c2cn3ccc(N4CCN(C)CC4)cc3n2)cc1Cl [Example 106, 2-(5-chloro-2,4-dimethoxyphenyl)-7-(4-methylpiperazin-1-yl)imidazo[1,2-a]pyridine]	0.0167	6.3	3.9	6.8	6.8	–	–	–	–
CCOC(=O)N1CCN(c2ccn3cc(-c4cc(Cl)c(OC)cc4OC)nc3c2)CC1 [Example 107, ethyl 4-[2-(5-chloro-2,4-dimethoxyphenyl)imidazo[1,2-a]pyridin-7-yl]-piperazine-1-carboxylate]	0.0116	2.3	1.7	3.2	1.7	–	–	–	–
COc1cc(OC)c(-c2cn3ccc(N4CCN(CCC#N)CC4)cc3n2)cc1Cl [Example 108, 3-(4-(2-(5-chloro-2,4-dimethoxyphenyl)imidazo[1,2-a]pyridin-7-yl)piperazin-1-yl)propanenitrile]	0.0142	6.3	3	5.9	10	–	–	–	–
COc1cc(OC)c(-c2cn3ccc(C4=CCN(CCC#N)CC4)cc3n2)cc1Cl [Example 109, 3-(4-(2-(5-chloro-2,4-dimethoxyphenyl)imidazo[1,2-a]pyridin-7-yl)-5,6-dihydropyridin-1(2H)-yl)propanenitrile]	0.0417	5.9	1.8	2.6	5.1	–	–	–	–
COc1cc(OC)c(-c2cn3ccc(C4=CCN(CC#N)CC4)cc3n2)cc1Cl [Example 111, 2-(4-(2-(5-chloro-2,4-dimethoxyphenyl)imidazo[1,2-a]pyridin-7-yl)-5,6-dihydropyridin-1(2H)-yl)acetonitrile]	0.0614	3.3	1.9	4.8	3.5	–	–	–	–

Reference: patent publication US10508109B2 (priority 2015, dated 2019)
